Earlier results on one compound are cited in US10815228B2, “Aztreonam derivatives and uses thereof” (ARIXA PHARMACEUTICALS, INC., priority 2017, dated 2020).

Each structure is given as a SMILES string.

For the compound `C[C@H]1[C@H](NC(=O)/C(=N/OC(C)(C)C(=O)O)c2csc(N)n2)C(=O)N1S(=O)(=O)O` [aztreonam, (2-((((E)-1-(2-aminothiazol-4-yl)-2-(((2S,3S)-2-methyl-4-oxo-1-sulfoazetidin-3-yl)amino)-2-oxoethylidene)amino)oxy)-2-methylpropanoic acid)], where the note is “aztreonam, statement in words”, the oral bioavailability result is given as “poor oral bioavailability”. Moreover, the “oral bioavailability of aztreonam” value (orally administered aztreonam) is given as “less than 1%”.
